Bridge positions count the residues as written; N and C are the ends. Square brackets hold non-standard residues; d marks the D form. Peptide text beside a SMILES is read from it. * marks the point of attachment. Ala(morpholin-4-yl) = N[C@@H](CN1CCOCC1)C(=O)O; Phe(4-CONH2) = NC(=O)c1ccc(C[C@H](N)C(=O)O)cc1; Phe(4-COOH) = N[C@@H](Cc1ccc(C(=O)O)cc1)C(=O)O; Phe(4-CH2NH2) = NCc1ccc(C[C@H](N)C(=O)O)cc1; Bip = N[C@@H](Cc1ccc(-c2ccccc2)cc1)C(=O)O; Phe(3-Me) = Cc1cccc(C[C@H](N)C(=O)O)c1; Phe(4-F) = N[C@@H](Cc1ccc(F)cc1)C(=O)O; His(τ-Me) = Cn1cnc(C[C@H](N)C(=O)O)c1; Phe(2-Me) = Cc1ccccc1C[C@H](N)C(=O)O; His(π-Me) = Cn1cncc1C[C@H](N)C(=O)O; Cha = N[C@@H](CC1CCCCC1)C(=O)O; Cit = NC(=O)NCCC[C@H](N)C(=O)O; Carboxymethyl = O=C(O)C*; Orn = NCCC[C@H](N)C(=O)O; Aun = NCCCCCCCCCCC(=O)O; Dab = NCC[C@H](N)C(=O)O; Dap = NC[C@H](N)C(=O)O; AEEA = NCCOCCOCC(=O)O
molecular target: T1, PD-1/PD-L1 interaction (PE-labeled human PD-L1-Ig binding to Jurkat cell line over-expressing human PD-1) (Homo sapiens, UniProt Q15116); assay: Jurkat-PD-1 Cell Binding High-Content Screening Assay (CBA); format: cell-based; details: Jurkat cell line over-expressing human PD-1; PE-labeled PD-L1-Ig 20 nM final; read-out: Jurkat hPD1-PDL1 IC50
T1 construct: expressed in transfected cells; host or cells: Jurkat
T1 sequence (Q15116 25-288): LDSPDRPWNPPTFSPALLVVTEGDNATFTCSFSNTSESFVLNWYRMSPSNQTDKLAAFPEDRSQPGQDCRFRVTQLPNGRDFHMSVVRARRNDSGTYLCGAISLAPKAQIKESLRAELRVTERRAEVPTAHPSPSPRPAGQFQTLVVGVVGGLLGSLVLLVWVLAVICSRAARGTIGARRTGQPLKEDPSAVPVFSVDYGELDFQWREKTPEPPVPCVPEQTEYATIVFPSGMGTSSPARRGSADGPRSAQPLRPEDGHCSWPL
In short: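 Read-out is high-content imaging of cell-bound phycoerythrin-tagged PD-L1-Ig on fixed, Hoechst-counterstained Jurkat cells that over-express human PD-1. Compound exposure lasts 2 h at 37° C before the labeled ligand (20 nM final) is added for a further hour.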

| SMILES | IC50 [nM] |
| --- | --- |
| CC(C)C[C@H]1NC(=O)[C@H](CCCN)NC(=O)[C@H](C(C)C)NC(=O)[C@H](Cc2ccc(-c3ccccc3)cc2)NC(=O)[C@H](C(C)C)NC(=O)[C@H](Cc2ccc(O)cc2)NC(=O)[C@H](CC(=O)O)NC(=O)[C@H](Cc2ccc(OCC(=O)O)cc2)NC(=O)[C@H](CN)NC(=O)CSC[C@@H](C(=O)N[C@@H](CCN)C(=O)NCCCCCCCCCCC(=O)O)NC(=O)[C@H](CCCCN)NC(=O)[C@H](C(C)C)NC(=O)[C@H](CC2CCCCC2)NC(=O)[C@H](CCN)NC1=O [Compound 2033] ({CH2CO}-[Dap]Y(Carboxymethyl)DYV[Bip]V[Orn][dL][Dab][Cha]VKC[Dab][Aun]-OH; thioether N-14) | 29.2 |
| Cc1cccc(C[C@@H]2NC(=O)[C@H](CC(=O)O)NC(=O)[C@H](Cc3ccc(OCC(=O)O)cc3)NC(=O)[C@H](Cc3cncn3C)NC(=O)CSC[C@@H](C(=O)N[C@@H](CCN)C(=O)NCCCCCCCCCCC(=O)O)NC(=O)[C@H]([C@@H](C)O)NC(=O)[C@H](C(C)C)NC(=O)[C@H](CC3CCCCC3)NC(=O)[C@H](CCN)NC(=O)[C@@H](CC(C)C)NC(=O)[C@H](CCCN)NC(=O)[C@H](CCCNC(N)=O)NC(=O)[C@H](Cc3ccc(-c4ccccc4)cc3)NC(=O)[C@H](C(C)C)NC2=O)c1 [Compound 2034] ({CH2CO}-[His(π-Me)]Y(Carboxymethyl)D[Phe(3-Me)]V[Bip][Cit][Orn][dL][Dab][Cha]VTC[Dab][Aun]-OH; thioether N-14) | 15.5 |
| Cc1cccc(C[C@@H]2NC(=O)[C@H](CC(=O)O)NC(=O)[C@H](Cc3ccc(OCC(=O)O)cc3)NC(=O)[C@H](Cc3cncn3C)NC(=O)CSC[C@@H](C(=O)N[C@@H](CCN)C(=O)NCCCCCCCCCCC(=O)O)NC(=O)[C@H](CCCCN)NC(=O)[C@H](C(C)C)NC(=O)[C@H](CC3CCCCC3)NC(=O)[C@H](CCN)NC(=O)[C@@H](CC(C)C)NC(=O)[C@H](CCCN)NC(=O)[C@H](C(C)C)NC(=O)[C@H](Cc3ccc(-c4ccccc4)cc3)NC(=O)[C@H](C(C)C)NC2=O)c1 [Compound 2035] ({CH2CO}-[His(π-Me)]Y(Carboxymethyl)D[Phe(3-Me)]V[Bip]V[Orn][dL][Dab][Cha]VKC[Dab][Aun]-OH; thioether N-14) | 14.5 |
| Cc1cccc(C[C@@H]2NC(=O)[C@H](CC(=O)O)NC(=O)[C@H](Cc3ccc(OCC(=O)O)cc3)NC(=O)[C@H](Cc3cn(C)cn3)NC(=O)CSC[C@@H](C(=O)N[C@@H](CCN)C(=O)NCCCCCCCCCCC(=O)O)NC(=O)[C@H]([C@@H](C)O)NC(=O)[C@H](C(C)C)NC(=O)[C@H](CC3CCCCC3)NC(=O)[C@H](CCN)NC(=O)[C@@H](CC(C)C)NC(=O)[C@H](CCCN)NC(=O)[C@H](CCCNC(N)=O)NC(=O)[C@H](Cc3ccc(-c4ccccc4)cc3)NC(=O)[C@H](C(C)C)NC2=O)c1 [Compound 2036] ({CH2CO}-[His(τ-Me)]Y(Carboxymethyl)D[Phe(3-Me)]V[Bip][Cit][Orn][dL][Dab][Cha]VTC[Dab][Aun]-OH; thioether N-14) | 14.4 |
| Cc1cccc(C[C@@H]2NC(=O)[C@H](CC(=O)O)NC(=O)[C@H](Cc3ccc(OCC(=O)O)cc3)NC(=O)[C@H](Cc3cn(C)cn3)NC(=O)CSC[C@@H](C(=O)N[C@@H](CCN)C(=O)NCCCCCCCCCCC(=O)O)NC(=O)[C@H](CCCCN)NC(=O)[C@H](C(C)C)NC(=O)[C@H](CC3CCCCC3)NC(=O)[C@H](CCN)NC(=O)[C@@H](CC(C)C)NC(=O)[C@H](CCCN)NC(=O)[C@H](C(C)C)NC(=O)[C@H](Cc3ccc(-c4ccccc4)cc3)NC(=O)[C@H](C(C)C)NC2=O)c1 [Compound 2037] ({CH2CO}-[His(τ-Me)]Y(Carboxymethyl)D[Phe(3-Me)]V[Bip]V[Orn][dL][Dab][Cha]VKC[Dab][Aun]-OH; thioether N-14) | 16.9 |
| Cc1cccc(C[C@@H]2NC(=O)[C@H](CC(=O)O)NC(=O)[C@H](Cc3ccc(OCC(=O)O)cc3)NC(=O)[C@H](CN3CCOCC3)NC(=O)CSC[C@@H](C(=O)N[C@@H](CCN)C(=O)NCCCCCCCCCCC(=O)O)NC(=O)[C@H]([C@@H](C)O)NC(=O)[C@H](C(C)C)NC(=O)[C@H](CC3CCCCC3)NC(=O)[C@H](CCN)NC(=O)[C@@H](CC(C)C)NC(=O)[C@H](CCCN)NC(=O)[C@H](CCCNC(N)=O)NC(=O)[C@H](Cc3ccc(-c4ccccc4)cc3)NC(=O)[C@H](C(C)C)NC2=O)c1 [Compound 2038] ({CH2CO}-[Ala(morpholin-4-yl)]Y(Carboxymethyl)D[Phe(3-Me)]V[Bip][Cit][Orn][dL][Dab][Cha]VTC[Dab][Aun]-OH; thioether N-14) | 38.7 |
| Cc1cccc(C[C@@H]2NC(=O)[C@H](CC(=O)O)NC(=O)[C@H](Cc3ccc(OCC(=O)O)cc3)NC(=O)[C@H](CN3CCOCC3)NC(=O)CSC[C@@H](C(=O)N[C@@H](CCN)C(=O)NCCCCCCCCCCC(=O)O)NC(=O)[C@H](CCCCN)NC(=O)[C@H](C(C)C)NC(=O)[C@H](CC3CCCCC3)NC(=O)[C@H](CCN)NC(=O)[C@@H](CC(C)C)NC(=O)[C@H](CCCN)NC(=O)[C@H](C(C)C)NC(=O)[C@H](Cc3ccc(-c4ccccc4)cc3)NC(=O)[C@H](C(C)C)NC2=O)c1 [Compound 2039] ({CH2CO}-[Ala(morpholin-4-yl)]Y(Carboxymethyl)D[Phe(3-Me)]V[Bip]V[Orn][dL][Dab][Cha]VKC[Dab][Aun]-OH; thioether N-14) | 19.4 |
| Cc1cccc(C[C@@H]2NC(=O)[C@H](CC(=O)O)NC(=O)[C@H](Cc3ccc(OCC(=O)O)cc3)NC(=O)[C@H](CN)NC(=O)CSC[C@@H](C(=O)N[C@@H](CCN)C(=O)NCCOCCOCC(=O)NCCCCCCCCCCC(=O)O)NC(=O)[C@H](CCCN)NC(=O)[C@H](C(C)C)NC(=O)[C@H](CC3CCCCC3)NC(=O)[C@H](CCN)NC(=O)[C@@H](CC(C)C)NC(=O)[C@H](CCCN)NC(=O)[C@H](Cc3ccccc3)NC(=O)[C@H](Cc3ccc(-c4ccccc4)cc3)NC(=O)[C@H](Cc3ccc(O)cc3)NC2=O)c1 [Compound 2041] ({CH2CO}-[Dap]Y(Carboxymethyl)D[Phe(3-Me)]Y[Bip]F[Orn][dL][Dab][Cha]V[Orn]C[Dab][AEEA][Aun]-OH; thioether N-14) | 8.2 |
| Cc1cccc(C[C@@H]2NC(=O)[C@H](CC(=O)O)NC(=O)[C@H](Cc3ccc(OCC(=O)O)cc3)NC(=O)[C@H](CN)NC(=O)CSC[C@@H](C(=O)N[C@@H](CCN)C(=O)NCCOCCOCC(=O)NCCCCCCCCCCC(=O)O)NC(=O)[C@H](CCCN)NC(=O)[C@H](C(C)C)NC(=O)[C@H](CC3CCCCC3)NC(=O)[C@H](CCN)NC(=O)[C@@H](CC(C)C)NC(=O)[C@H](CCCN)NC(=O)[C@H](Cc3ccc(C(=O)O)cc3)NC(=O)[C@H](Cc3ccc(-c4ccccc4)cc3)NC(=O)[C@H](Cc3ccc(O)cc3)NC2=O)c1 [Compound 2042] ({CH2CO}-[Dap]Y(Carboxymethyl)D[Phe(3-Me)]Y[Bip][Phe(4-COOH)][Orn][dL][Dab][Cha]V[Orn]C[Dab][AEEA][Aun]-OH; thioether N-14) | 5 |
| Cc1cccc(C[C@@H]2NC(=O)[C@H](CC(=O)O)NC(=O)[C@H](Cc3ccc(OCC(=O)O)cc3)NC(=O)[C@H](CN)NC(=O)CSC[C@@H](C(=O)N[C@@H](CCN)C(=O)NCCOCCOCC(=O)NCCCCCCCCCCC(=O)O)NC(=O)[C@H](CCCN)NC(=O)[C@H](C(C)C)NC(=O)[C@H](CC3CCCCC3)NC(=O)[C@H](CCN)NC(=O)[C@@H](CC(C)C)NC(=O)[C@H](CCCN)NC(=O)[C@H](Cc3ccc(C(N)=O)cc3)NC(=O)[C@H](Cc3ccc(-c4ccccc4)cc3)NC(=O)[C@H](Cc3ccc(O)cc3)NC2=O)c1 [Compound 2045] ({CH2CO}-[Dap]Y(Carboxymethyl)D[Phe(3-Me)]Y[Bip][Phe(4-CONH2)][Orn][dL][Dab][Cha]V[Orn]C[Dab][AEEA][Aun]-OH; thioether N-14) | 7.2 |
| Cc1cccc(C[C@@H]2NC(=O)[C@H](CC(=O)O)NC(=O)[C@H](Cc3ccc(OCC(=O)O)cc3)NC(=O)[C@H](CN)NC(=O)CSC[C@@H](C(=O)N[C@@H](CCN)C(=O)NCCOCCOCC(=O)NCCCCCCCCCCC(=O)O)NC(=O)[C@H](CCCN)NC(=O)[C@H](C(C)C)NC(=O)[C@H](CC3CCCCC3)NC(=O)[C@H](CCN)NC(=O)[C@@H](CC(C)C)NC(=O)[C@H](CCCN)NC(=O)[C@H](Cc3ccc(CN)cc3)NC(=O)[C@H](Cc3ccc(-c4ccccc4)cc3)NC(=O)[C@H](Cc3ccc(O)cc3)NC2=O)c1 [Compound 2046] ({CH2CO}-[Dap]Y(Carboxymethyl)D[Phe(3-Me)]Y[Bip][Phe(4-CH2NH2)][Orn][dL][Dab][Cha]V[Orn]C[Dab][AEEA][Aun]-OH; thioether N-14) | 9.7 |
| Cc1cccc(C[C@@H]2NC(=O)[C@H](CC(=O)O)NC(=O)[C@H](Cc3ccc(OCC(=O)O)cc3)NC(=O)[C@H](CN)NC(=O)CSC[C@@H](C(=O)N[C@@H](CCN)C(=O)NCCOCCOCC(=O)NCCCCCCCCCCC(=O)O)NC(=O)[C@H](CCCN)NC(=O)[C@H](C(C)C)NC(=O)[C@H](CC3CCCCC3)NC(=O)[C@H](CCN)NC(=O)[C@@H](CC(C)C)NC(=O)[C@H](CCCN)NC(=O)[C@H](Cc3ccccc3C)NC(=O)[C@H](Cc3ccc(-c4ccccc4)cc3)NC(=O)[C@H](Cc3ccc(O)cc3)NC2=O)c1 [Compound 2048] ({CH2CO}-[Dap]Y(Carboxymethyl)D[Phe(3-Me)]Y[Bip][Phe(2-Me)][Orn][dL][Dab][Cha]V[Orn]C[Dab][AEEA][Aun]-OH; thioether N-14) | 12.4 |
| Cc1cccc(C[C@@H]2NC(=O)[C@H](CC(=O)O)NC(=O)[C@H](Cc3ccc(OCC(=O)O)cc3)NC(=O)[C@H](CN)NC(=O)CSC[C@@H](C(=O)N[C@@H](CCN)C(=O)NCCOCCOCC(=O)NCCCCCCCCCCC(=O)O)NC(=O)[C@H](CCCN)NC(=O)[C@H](C(C)C)NC(=O)[C@H](CC3CCCCC3)NC(=O)[C@H](CCN)NC(=O)[C@@H](CC(C)C)NC(=O)[C@H](CCCN)NC(=O)[C@H](Cc3ccc(F)cc3)NC(=O)[C@H](Cc3ccc(-c4ccccc4)cc3)NC(=O)[C@H](Cc3ccc(O)cc3)NC2=O)c1 [Compound 2049] ({CH2CO}-[Dap]Y(Carboxymethyl)D[Phe(3-Me)]Y[Bip][Phe(4-F)][Orn][dL][Dab][Cha]V[Orn]C[Dab][AEEA][Aun]-OH; thioether N-14) | 16.9 |
